Literature values as cited in patent EP3155636B1, “A PROBE FOR EXTRACTION OF MOLECULES OF INTEREST FROM A SAMPLE” (JP Scientific Limited, priority 2014, dated 2015).

conditions: listed with the MS/MS parameters of 21 WADA controlled substances; source and method not stated

Structure (SMILES) | Log P
CC(C)NCC(O)COc1ccc(COCCOC(C)C)cc1 (stereo not drawn) [Bisoprolol] | 2.14
C=C1C[C@@H]2[C@H](CC[C@]3(C)C(=O)CC[C@@H]23)[C@@]2(C)C=CC(=O)C=C12 [Exemestane] | 3.70
Cc1cc(SCc2sc(-c3ccc(C(F)(F)F)cc3)nc2C)ccc1OCC(=O)O [GW501516] | 6.29
CCN(CC)C(=O)c1cccnc1 [Nikethamide] | 0.33
CC(C)(C)NCC(O)c1ccc(O)c(CO)c1 (stereo not drawn) [Salbutamol] | 0.64
CN(C)CCOc1ccc(/C(=C(/CCCl)c2ccccc2)c2ccccc2)cc1 [Toremifene] | 6.80
